Experimental findings from patent US20160002273A1, “THIENO[3,2-D]PYRIMIDINE-6-CARBOXAMIDES AND ANALOGUES AS SIRTUIN MODULATORS” (GLAXOSMITHKLINE LLC, priority 2013, published 2016) are described below.

For one assay, the target named is T1, SIRT2 (Homo sapiens, UniProt Q8IXJ6).
T1 sequence (Q8IXJ6 1-389): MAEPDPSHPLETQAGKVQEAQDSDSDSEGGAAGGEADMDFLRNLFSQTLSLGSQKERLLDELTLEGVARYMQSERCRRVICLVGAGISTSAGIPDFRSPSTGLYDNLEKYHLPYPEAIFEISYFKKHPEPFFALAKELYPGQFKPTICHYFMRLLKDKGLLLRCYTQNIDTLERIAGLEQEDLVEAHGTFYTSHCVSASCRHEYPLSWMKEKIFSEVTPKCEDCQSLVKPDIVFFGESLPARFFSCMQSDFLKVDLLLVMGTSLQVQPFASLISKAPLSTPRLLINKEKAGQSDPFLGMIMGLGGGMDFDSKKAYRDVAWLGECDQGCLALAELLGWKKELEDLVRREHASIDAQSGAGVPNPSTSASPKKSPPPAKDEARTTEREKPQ
Description: SIRT2 deacetylation of Trp 5-mer peptide, OAADPr mass spec assay. The settings on record: Trp 5-mer peptide; class symbols; read-out: Trp SIRT2_IC50. Also noted: His-SIRT2(1-389). The format is biochemical.

Another assay concerns the target T2, SIRT1 (Homo sapiens, UniProt Q96EB6).
T2 sequence (Q96EB6 1-747): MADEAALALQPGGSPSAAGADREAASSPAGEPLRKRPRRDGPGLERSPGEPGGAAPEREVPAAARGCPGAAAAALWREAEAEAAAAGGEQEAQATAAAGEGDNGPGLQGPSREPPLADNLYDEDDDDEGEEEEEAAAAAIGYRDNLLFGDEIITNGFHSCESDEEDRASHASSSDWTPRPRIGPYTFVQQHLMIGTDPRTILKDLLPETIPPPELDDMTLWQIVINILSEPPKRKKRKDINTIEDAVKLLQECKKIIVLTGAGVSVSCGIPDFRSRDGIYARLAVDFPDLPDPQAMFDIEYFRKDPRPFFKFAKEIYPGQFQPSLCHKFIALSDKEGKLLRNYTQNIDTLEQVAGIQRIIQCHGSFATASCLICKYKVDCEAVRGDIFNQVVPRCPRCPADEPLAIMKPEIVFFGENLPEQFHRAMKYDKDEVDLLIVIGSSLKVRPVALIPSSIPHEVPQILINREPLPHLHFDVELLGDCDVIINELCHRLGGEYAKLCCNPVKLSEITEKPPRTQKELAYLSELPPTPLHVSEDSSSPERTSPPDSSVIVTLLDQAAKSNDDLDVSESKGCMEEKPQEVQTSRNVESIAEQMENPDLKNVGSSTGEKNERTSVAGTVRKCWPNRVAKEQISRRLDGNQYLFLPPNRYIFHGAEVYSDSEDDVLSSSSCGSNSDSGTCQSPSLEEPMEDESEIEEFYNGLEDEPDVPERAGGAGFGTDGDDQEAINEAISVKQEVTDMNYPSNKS
The experiment in a line: SIRT1 deacetylation of Trp 5-mer peptide, OAADPr mass spec assay. The settings on record: Trp SIRT1_IC50, Trp 5-mer peptide; class symbols.

For the next assay, the target named is T3, SIRT3 (Homo sapiens, UniProt Q9NTG7).
T3 sequence (Q9NTG7 102-399): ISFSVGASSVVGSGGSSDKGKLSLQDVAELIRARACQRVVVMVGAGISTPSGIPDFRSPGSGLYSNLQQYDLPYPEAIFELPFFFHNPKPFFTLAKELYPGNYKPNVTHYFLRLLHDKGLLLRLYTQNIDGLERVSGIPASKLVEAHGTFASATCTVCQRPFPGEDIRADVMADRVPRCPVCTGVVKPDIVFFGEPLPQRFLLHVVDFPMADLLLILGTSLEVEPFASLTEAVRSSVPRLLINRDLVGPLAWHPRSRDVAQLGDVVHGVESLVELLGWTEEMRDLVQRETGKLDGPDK
Description: SIRT3 deacetylation of Trp 5-mer peptide, OAADPr mass spec assay. The settings on record: Trp SIRT3_IC50, Trp 5-mer peptide; class symbols.

Description for SIRT1: (§1) All assays were performed at room temperature in reaction buffer (50 mM HEPES, pH 7.5, 150 mM NaCl, 1 mM DTT, 0.05% BSA). […] To prepare the assays for analysis, 20 μL of reaction volume was mixed in 80 μL of 50:50 acetonitrile:methanol mixture. […] Peak data was integrated using RapidFire Integrator software (Agilent, Santa Clara, Calif.).
Description for SIRT3: as §1

Regarding `NC(=O)c1cc2ncnc(N3CCC(CCN4CCCC4)CC3)c2o1` [Compound 87], the IC50 was less than 1000 nM on SIRT2, 1000 to 10000 nM at SIRT1 and less than 1000 nM at SIRT3.

Turning to `NC(=O)c1cc2ncnc(N3CCC(CCNC(=O)C4CCCC4)CC3)c2o1` [Compound 88], the IC50 at SIRT2, on SIRT1 and against SIRT3 was less than 1000 nM each time.

Regarding `CS(=O)(=O)NCCN1CCN(c2ncnc3cc(C(N)=O)oc23)CC1` [Compound 89], the IC50 on SIRT2 was less than 1000 nM; on SIRT1 it was 1000 to 10000 nM; on SIRT3, less than 1000 nM.

As for `NC(=O)c1cc2ncnc(N3CCC(CN4CCCC4)CC3)c2o1` [Compound 90], the IC50 on SIRT2 is 1000 to 10000 nM; against SIRT1 it was 1000 to 10000 nM; against SIRT3 it was less than 1000 nM.

With `COCCC1CCN(c2ncnc3cc(C(N)=O)oc23)CC1` [Compound 91], the IC50 at SIRT2, on SIRT1 and on SIRT3 was 1000 to 10000 nM throughout.

Take `NC(=O)c1cc2ncnc(N3CCN(CCN4CCCC4)CC3)c2o1` [Compound 92]: the figures for the IC50 at SIRT2, against SIRT1 and against SIRT3 were less than 1000 nM, 1000 to 10000 nM and less than 1000 nM, respectively.

As to `NC(=O)c1cc2ncnc(N3CCC(CCO)CC3)c2o1` [Compound 93], the IC50 is less than 1000 nM at SIRT2, 1000 to 10000 nM on SIRT1 and less than 1000 nM against SIRT3.

`CC(C)(C)OC(=O)N1CCC(C2CCN(c3ncnc4cc(C(N)=O)oc34)CC2)CC1` [Compound 94, tert-butyl 1′-(6-carbamoylfuro[3,2-d]pyrimidin-4-yl)-[4,4′-bipiperidine]-1-carboxylate]: the IC50 is 1000 to 10000 nM at SIRT2, 1000 to 10000 nM at SIRT1 and greater than 10000 nM against SIRT3.

For the compound `NCCC1CCN(c2ncnc3cc(C(N)=O)oc23)CC1` [Compound 95, 4-(4-(2-aminoethyl)piperidin-1-yl)furo[3,2-d]pyrimidine-6-carboxamide], the IC50 at SIRT2 was less than 1000 nM; on SIRT1, 1000 to 10000 nM; against SIRT3 it was 1000 to 10000 nM.

For `NCCN1CCN(c2ncnc3cc(C(N)=O)oc23)CC1` [Compound 96], the IC50 was 1000 to 10000 nM at SIRT2, greater than 10000 nM on SIRT1 and 1000 to 10000 nM against SIRT3.

On to `CC(C)(C)C(=O)NCCN1CCN(c2ncnc3cc(C(N)=O)oc23)CC1` [Compound 97], for which the IC50 at SIRT2, against SIRT1 and at SIRT3 was less than 1000 nM each time.

With `NC(=O)c1cc2ncnc(N3CCN(CCNC(=O)C4CCCC4)CC3)c2o1` [Compound 98], the IC50 on SIRT2, against SIRT1 and at SIRT3 was less than 1000 nM throughout.

Turning to `CS(=O)(=O)NCCC1CCN(c2ncnc3cc(C(N)=O)oc23)CC1` [Compound 99], the IC50 at SIRT2, against SIRT1 and against SIRT3 was less than 1000 nM each time.

As to `NC(=O)c1cc2ncnc(N3CCC(C4CCNCC4)CC3)c2o1` [Compound 100, 4-([4,4′-bipiperidin]-1-yl)furo[3,2-d]pyrimidine-6-carboxamide], the IC50 is greater than 10000 nM at SIRT2, greater than 10000 nM against SIRT1 and 1000 to 10000 nM against SIRT3.

Consider `CC(C)(C)OC(=O)NCCC1CCN(c2ccnc3cc(C(N)=O)sc23)CC1` [Compound 103, tert-butyl (2-(1-(2-carbamoylthieno[3,2-b]pyridin-7-yl)piperidin-4-yl)ethyl)carbamate], for which the IC50 on SIRT2, against SIRT1 and against SIRT3 was less than 1000 nM throughout.

As for `NCCC1CCN(c2ccnc3cc(C(N)=O)sc23)CC1` [Compound 104, 7-(4-(2-aminoethyl)piperidin-1-yl)thieno[3,2-b]pyridine-2-carboxamide], the IC50 on SIRT2 was less than 1000 nM; against SIRT1, 1000 to 10000 nM; on SIRT3, less than 1000 nM.

Turning to `NC(=O)c1cc2nccc(N3CCC(CN4CCCC4)CC3)c2s1` [Compound 105], the IC50 is less than 1000 nM on SIRT2, 1000 to 10000 nM against SIRT1 and less than 1000 nM on SIRT3.

On to `CC(C)(C)C(=O)NCCC1CCN(c2ncc(Br)c3cc(C(N)=O)sc23)CC1` [Compound 112, 4-bromo-7-(4-(2-pivalamidoethyl)piperidin-1-yl)thieno[2,3-c]pyridine-2-carboxamide], for which the results for the IC50 at SIRT2, on SIRT1 and against SIRT3 were 1000 to 10000 nM, 1000 to 10000 nM and greater than 10000 nM, respectively.

As to `Cc1c(C(N)=O)sc2c(N3CCC(CCNC(=O)OC(C)(C)C)CC3)ncnc12` [Compound 116, tert-butyl (2-(1-(6-carbamoyl-7-methylthieno[3,2-d]pyrimidin-4-yl)piperidin-4-yl)ethyl)carbamate], the IC50 on SIRT2, at SIRT1 and against SIRT3 was less than 1000 nM in each case.

For `Cc1c(C(N)=O)sc2c(N3CCC(CCN)CC3)ncnc12` [Compound 117, 4-(4-(2-aminoethyl)piperidin-1-yl)-7-methylthieno[3,2-d]pyrimidine-6-carboxamide], the values for the IC50 at SIRT2, on SIRT1 and at SIRT3 were 1000 to 10000 nM, greater than 10000 nM and 1000 to 10000 nM, respectively.

With `NCCNC(=O)c1cccc(C(=O)NCCN2CCN(c3ncnc4cc(C(N)=O)sc34)CC2)c1` [Compound 127, N1-(2-aminoethyl)-N3-(2-(4-(6-carbamoylthieno[3,2-d]pyrimidin-4-yl)piperazin-1-yl)ethyl)isophthalamide], the IC50 at SIRT2, against SIRT1 and against SIRT3 was less than 1000 nM throughout.

In the case of `NC(=O)c1cc2ncnc(N3CCC(CN4CCCC(C(F)(F)F)C4)CC3)c2s1` (stereo not drawn) [Compound 131, 4-(4-((3-(trifluoromethyl)piperidin-1-yl)methyl)piperidin-1-yl)thieno[3,2-d]pyrimidine-6-carboxamide], the IC50 on SIRT2, on SIRT1 and on SIRT3 was less than 1000 nM throughout.

With `NC(=O)c1cc2ncnc(N3CCC(CN4CCCC4C(F)(F)F)CC3)c2s1` (stereo not drawn) [Compound 132], the IC50 at SIRT2, at SIRT1 and against SIRT3 was less than 1000 nM in each case.

On to `CCNC(=O)c1cc(Br)cc(C(=O)NCCC2CCN(c3ncnc4cc(C(N)=O)sc34)CC2)c1` [Compound 136, 5-bromo-N^1-(2-(1-(6-carbamoylthieno[3,2-d]pyrimidin-4-yl)piperidin-4-yl)ethyl)-N^3-ethylisophthalamide], for which the IC50 at SIRT2, against SIRT1 and against SIRT3 was less than 1000 nM in each case.

With `Cc1nc(N2CCC(CCNC(=O)OC(C)(C)C)CC2)c2sc(C(N)=O)cc2n1` [Compound 145, tert-butyl (2-(1-(6-carbamoyl-2-methylthieno[3,2-d]pyrimidin-4-yl)piperidin-4-yl)ethyl)carbamate], the results for the IC50 at SIRT2, at SIRT1 and at SIRT3 were less than 1000 nM, 1000 to 10000 nM and less than 1000 nM, respectively.

For `Cc1nc(N2CCC(CCN3CCCC3)CC2)c2sc(C(N)=O)cc2n1` [Compound 146], the IC50 at SIRT2 is 1000 to 10000 nM; against SIRT1, 1000 to 10000 nM; against SIRT3, less than 1000 nM.

In the case of `Cc1nc(N2CCC(CN3CCCC3)CC2)c2sc(C(N)=O)cc2n1` [Compound 147], the IC50 at SIRT2 was 1000 to 10000 nM; on SIRT1, greater than 10000 nM; against SIRT3, 1000 to 10000 nM.

In the case of `COCCC1CCN(c2nc(C)nc3cc(C(N)=O)sc23)CC1` [Compound 148], the IC50 on SIRT2, on SIRT1 and against SIRT3 was 1000 to 10000 nM throughout.

With `Cc1nc(N2CCN(CCNC(=O)OC(C)(C)C)CC2)c2sc(C(N)=O)cc2n1` [Compound 149], the values for the IC50 on SIRT2, on SIRT1 and at SIRT3 were 1000 to 10000 nM, greater than 10000 nM and 1000 to 10000 nM, respectively.

For the compound `Cc1nc(N2CCN(CCN3CCCC3)CC2)c2sc(C(N)=O)cc2n1` [Compound 150], the values for the IC50 on SIRT2, on SIRT1 and against SIRT3 were 1000 to 10000 nM, 1000 to 10000 nM and less than 1000 nM, respectively.
